# Test results as given in US3984470A, “Amidoxime derivatives and process for preparing the same” (priority 1974, dated 1976).
# Like-named read-outs stand apart in the source and are kept apart here.
# Columns and labels:
# reserpine-induced ptosis = assay: Reserpine-induced ptosis in the rat; assay type: in vivo, male rats of the CF1 strain; conditions: reserpine 5 mg/kg i.p., score scale 0-4, mean to 6th hour vs controls
# Procedure: (§2) The thymoanaleptic properties of the compounds of the invention were determined by means of reserpine-induced ptosis and hypothermia in the rat.
# An intraperitoneal dose of 5 mg/kg of reserpine was administered to batches of 5 male rats of the CF1 strain weighing an average of 300 g.
# Thirty minutes later a dose of the compound to be studied was given by oral route and the inhibitory effect of the reserpine was noted every hour up to the sixth hour. Ptosis was evaluated for each eye in accordance with the following scale:
# 4 : eyelids completely closed.
# The difference between these two averages represents the average decrease of the ptosis in the treated animals as compared to the controls.
# [1] = system: reserpine-induced hypothermia; assay: Reserpine-induced hypothermia in the rat; assay type: in vivo, male rats CF1; conditions: reserpine 5 mg/kg i.p., mean to 6th hour vs controls
# Procedure: as §2
# An intraperitoneal dose of 5 mg/kg of reserpine was administered to batches of 5 male rats CF1 weighing an average of 300 g. Thirty minutes later, the rectal temperature was determined and then a dose of the compound to be tested was given by oral route, except to the control animals. The rectal temperature of all the animals including the controls was taken every hour up to the 6th hour.
# The difference between these two averages enabled an estimation to be made regarding the antagonistic effect of the compounds of the invention on the hypothermia induced by reserpine.
# toxicity of yohimbine = assay: Potentiation of the toxicity of yohimbine (test of QUINTON); assay type: in vivo, male mice; conditions: for mortality at 50 mg/kg: Mus musculus, 50 mg/kg oral, yohimbine hydrochloride 25 mg/kg i.p., mortality after 24 hours
# Procedure: Yohimbine is a substance which provokes an increase in the serotonine level in the brain or a decrease in norepinephrine according to the author.
# For this purpose, the test of QUINTON was used which is described in Brit. J. Pharmacol. 21, 51 (1963). […] […] The percentage of mortality was noted after 24 hours.
# Table III hereunder expresses the percentage of potentiation of the toxicity due to yohimbine in comparison with the controls.
# The percentage in question was determined 24 hours after the administration of yohimbine.
# [2] = system: stereotypies induced by amphetamine; assay: Potentiation of the stereotypies induced by amphetamine; assay type: in vivo, rats
# Procedure: It is commonly admitted that amphetamine induces stereotypies by stimulating the dopaminergic receptors and inhibiting the re-uptake of dopamine into the neuron.
# The thymoanaleptics potentiate these stereotypies.
# Thirty minutes later, a dose of 10 mg/kg of the compound to be tested was given by oral route. Note was taken of the intensity of the stereotypies every 30 minutes for 150 minutes in accordance with the following scale which indicates the behaviour of the animal.
# 0 : the rat is motionless and asleep
# 1 : the rat is motionless and awake
# 3 : the rat stands on its hind paws and sniffs the lid of its cage in a stereotyped manner.
# 4 : the rat licks the walls of its cage in a stereotyped manner
# 5 : the rat bites the bars of its cage or sniffs the shavings of its litter in a stereotyped manner
# 6 : the rat chews the shavings in a stereotyped manner
# The average of the 5 results obtained for each batch was calculated and compared with the average obtained with the control animals.
# The difference between these averages represents the mean increase of the steroetypies of the treated animals in comparison with the controls.
# [3] = system: aggressivity of killer rats; assay: Aggressivity of killer rats; assay type: in vivo, male rats; conditions: for inhibition in vivo at 25 mg/kg: 25 mg/kg i.p.; for inhibition in vivo at 20 mg/kg: 20 mg/kg i.p.
# Text: If, under certain conditions, male rats are kept alone in individual cages for several weeks, the become spontaneously aggressive towards any mouse, which they kill as soon as it is placed in the same cage. Mice were introduced one after another into cages containing an isolated rat and a selection was made of the rats which immediately killed three mice. In this way batches of 6 to 8 rats were constituted. The rats were then given the compound to be studied by intraperitoneal route in such a way that each batch received a higher dose than the preceding batch. […] Table V which follows contains the results obtained 30 minutes after administration of the compound to be studied.
# [4] = system: aggressivity of isolated mice; assay: Aggressivity of isolated mice; assay type: in vivo, male mouse; conditions: for ED50: Mus musculus, read-out: ED50, inhibition of aggressivity
# Procedure: If a male mouse is kept alone in a cage for 3 weeks to 1 month, it will spontanesouly attack any other animal of the same species which is placed in the same cage. If the other animal has also been isolated under the same conditions a series of fights takes place.
# Mice were isolated for the period of time required to render them spontaneously aggressive. Couples were then put together and note was taken of the number of fights which took place over a period of 3 minutes. Each batch was composed of four pairs of mice.
# The animals of each batch were then treated by intragastric route with the compound to be studied which was administered in such a way that each batch received a higher dose than the preceding batch. […]
# The results were expressed in the percentage of decrease in the number of fights between the animals after treatment in comparison with the percentage obtained before treatment which represents the percentage of inhibition of aggressivity.
# [5] = system: cholinergic effects provoked by tremorine; assay: Cholinolytic properties: action with respect to tremorine; assay type: in vivo, male mice of the OF1 strain; conditions: tremorine 10 mg/kg, difference vs controls
# Procedure: When injected into mice, tremorine and its metabolite, oxotremorine, produce central cholinergic effects, i.e. normal and provoked tremor as well as peripheral cholinergic effects i.e. weeping, sweating diarrhoea and salivation.
# Male mice of the OF1 strain weighing 22 g, were divided into batches of 10. Each batch with the exception of the control animals, received, by oral route, a dose of the compound to be tested.
# Thirty minutes later, 10 mg/kg of tremorine were administered to all the batches and thirty minutes after the injection of tremorine note was taken of the cholinergic effects on each animal in accordance with the following scale: […]
# [6] = system: peripheral noradrenergic processes; conditions: intravenous route; cited from earlier work
# spontaneous motricity = assay: Spontaneous motricity in the mouse; assay type: in vivo; conditions: for influence on spontaneous motricity: 50 mg/kg intragastric
# Procedure: Tests were also performed with a view to determining whether the compounds of the invention modify spontaneous motricity.
# [7] = Toxicity, method of KARBER and BEHRENS, mice; conditions: mouse, in vivo; for LD50 at 48 h: mice, after 48 hours
# Procedure: (§1) Finally, tests of toxicity were performed with compounds of the invention following the method of KARBER and BEHRENS.
# neuromuscular functions = assay: Rotarod test of BOISSIER / neuromuscular functions; assay type: in vivo, mouse
# [8] = system: contractile reaction of the nictitating membrane; assay: Ganglioplegic activity on the anesthetized cat (nictitating membrane); assay type: in vivo; conditions: intravenous 0.005, 0.1 and 1 mg/kg
# Procedure: The tonus of the nictitating membrane was first noted after which the contractile reaction of the membrane to electric stimulation of the preganglionic fibre of the cervical sympathetic nerve was tested.
# [9] = Toxicity, method of KARBER and BEHRENS, rats; conditions: rat, in vivo; for LD50 at 48 h: rats, after 48 hours
# Procedure: as §1
# [10] = 10 mg/kg oral, amphetamine 10 mg/kg i.p., every 30 min for 150 min
# [11] = Rattus norvegicus, ip, 0.5 h, 30 minutes after administration
smiles,measurement,setting,value
"Cc1oc2cc(OC(C)(C)C(N)=NO)ccc2c1C [Compound 4, 2-(2,3-Dimethyl-6-benzofuryloxy)-2-methyl-propionamidoxime]",Average decrease of Ptosis,reserpine-induced ptosis; 10 mg/kg oral,2.1
same,Average inhibition of hypothermia (positive °C),[1]; 10 mg/kg oral,0.6 °C
same,mortality at 50 mg/kg,toxicity of yohimbine,30%
same,Average increase of the stereotypies,[2]; [10],0.8
same,inhibition in vivo at 25 mg/kg,[3]; [11],25%
"CN(C)CCCN1c2ccccc2CCc2ccccc21 [imipramine, 5-(3-dimethylaminopropyl)-10,11-dihydro-5H-dibenz [b,f] azepine, reference compound]",Average decrease of Ptosis,reserpine-induced ptosis; 20 mg/kg oral,1.6
same,Average inhibition of hypothermia (positive °C),[1]; 10 mg/kg oral,0.4 °C
same,mortality at 50 mg/kg,toxicity of yohimbine,50%
same,Average increase of the stereotypies,"[2]; 5 mg/kg, same conditions (intragastric), 150 minutes",4.4
same,Average increase of the stereotypies,"[2]; 20 mg/kg, same conditions (amphetamine 10 mg/kg i.p.)",6
same,inhibition in vivo at 20 mg/kg,[3]; [11],45%
same,inhibition of aggressivity,[4]; 20 mg/kg,78%
same,dose of imipramine giving the same activity as Compound 1,"[4]; relative to 0.42 mg/kg of Compound 1, intragastric, 90 minutes",twenty-times greater
same,Central response tremor: Normal,[5]; 20 mg/kg oral,-4
same,Central response tremor: Provoked,[5]; 20 mg/kg oral,-0.4
same,Peripheral cholinergic response: Salivat.,[5]; 20 mg/kg oral,0
same,Peripheral cholinergic response: Sweating,[5]; 20 mg/kg oral,-2
same,Peripheral cholinergic response: Weeping,[5]; 20 mg/kg oral,-0.8
same,dose potentiating the peripheral effects of exogenous norepinephrine,[6],≥ 1 mg/kg
"CC(Oc1cccc2c1OCC2)C(N)=NO (stereo not shown) [Compound 9, 2-(2,3-Dihydro-7-benzofuryloxy)-propionamidoxime]",Average decrease of Ptosis,reserpine-induced ptosis; 10 mg/kg oral,1.3
same,Average inhibition of hypothermia (positive °C),[1]; 10 mg/kg oral,0.5 °C
same,mortality at 50 mg/kg,toxicity of yohimbine,10%
same,Average increase of the stereotypies,[2]; [10],6.2
same,influence on spontaneous motricity,spontaneous motricity; mouse,no influence on the spontaneous motricity
"NC(CCOc1cccc2ccoc12)=NO [Compound 8, 3-(7-Benzofuryloxy)-propionamidoxime]",Average decrease of Ptosis,reserpine-induced ptosis; 10 mg/kg oral,1.3
same,Average inhibition of hypothermia (positive °C),[1]; 10 mg/kg oral,0.4 °C
same,mortality at 50 mg/kg,toxicity of yohimbine,30%
same,Average increase of the stereotypies,[2]; [10],5.6
same,inhibition in vivo at 25 mg/kg,[3]; [11],70%
same,influence on spontaneous motricity,spontaneous motricity; mouse,no influence on the spontaneous motricity
"CC(Oc1cccc2occc12)C(N)=NO (stereo not shown) [Compound 3, 2-(4-Benzofuryloxy)-propionamidoxime]",Average decrease of Ptosis,reserpine-induced ptosis; 10 mg/kg oral,2.1
same,Average inhibition of hypothermia (positive °C),[1]; 20 mg/kg oral,1 °C
same,mortality at 50 mg/kg,toxicity of yohimbine,40%
same,Average increase of the stereotypies,[2]; [10],8.6
same,inhibition in vivo at 20 mg/kg,[3]; [11],89%
same,influence on spontaneous motricity,spontaneous motricity; mouse,no influence on the spontaneous motricity
same,LD50 at 48 h,"[7]; ip, intraperitoneal",68 mg/kg
"CC(Oc1cccc2ccccc12)C(N)=NO (stereo not shown) [Compound 1, 2-(1-Naphthyloxy)-propionamidoxime]",Average decrease of Ptosis,reserpine-induced ptosis; 10 mg/kg oral,1.7
same,Average inhibition of hypothermia (positive °C),[1]; 10 mg/kg oral,0.7 °C
same,Potentiation of the toxicity of yohimbine,"toxicity of yohimbine; 20 mg/kg, same conditions (yohimbine hydrochloride 25 mg/kg i.p.; 24 hours)",50%
same,Average increase of the stereotypies,[2]; [10],1
same,inhibition in vivo at 3 mg/kg,"[3]; Rattus norvegicus, ip, 0.5 h, 3 mg/kg i.p., 30 minutes after administration",100%
same,antiaggressive properties,[3]; conclusion from Table V,powerful antiaggressive properties
same,ED50,"[4]; po, 1.5 h, intragastric route, 90 minutes after administration",0.42 mg/kg
same,ED50,[4]; oral route,0.63 mg/kg
same,Central response tremor: Normal,[5]; 5 mg/kg oral,0
same,Central response tremor: Provoked,[5]; 5 mg/kg oral,0
same,Peripheral cholinergic response: Salivat.,[5]; 5 mg/kg oral,0
same,Peripheral cholinergic response: Sweating,[5]; 5 mg/kg oral,0
same,Peripheral cholinergic response: Weeping,[5]; 5 mg/kg oral,0
same,effect on curiosity of the animal,"spontaneous motricity; 3 mg/kg intragastric, mouse","without, however modifying the curiosity of the animal"
same,reduction of spontaneous motricity,"spontaneous motricity; 3 mg/kg intragastric, mouse, 30 minutes after administration",50%
same,sedation at doses active against aggressivity,spontaneous motricity; conclusion from ratio of doses,not sedative at the doses which are active against aggressivity
same,neurotoxic dose 50 (NTD 50) relative to ED50 (isolated mouse),"neuromuscular functions; 30 minutes after oral administration, mouse",sufficiently far removed from the ED50
same,intensity of the contractions of the nictitating membrane (ganglioplegic effect),[8],did not modify the intensity of the contractions of the membrane
same,LD50 at 24 h,[7]; po,380 mg/kg
same,LD50 at 24 h,[9]; ip,50 mg/kg
same,LD50 at 24 h,[9]; po,108 mg/kg
"CC(Oc1cccc2ccoc12)C(N)=NO (stereo not shown) [Compound 2, 2-(7-Benzofuryloxy)-propionamidoxime]",Average decrease of Ptosis,reserpine-induced ptosis; 10 mg/kg oral,2.4
same,Average inhibition of hypothermia (positive °C),[1]; 100 mg/kg oral,0.8 °C
same,mortality at 50 mg/kg,toxicity of yohimbine,50%
same,Average increase of the stereotypies,"[2]; 0.05 mg/kg intragastric, 150 minutes",9
same,Average increase of the stereotypies,[2]; [10],9
same,inhibition in vivo at 20 mg/kg,[3]; [11],50%
same,influence on spontaneous motricity,spontaneous motricity; mouse,no influence on the spontaneous motricity
same,damage to the neuromuscular functions,"neuromuscular functions; up to 40 mg/kg oral, for 3 hours after administration",did not cause any damage to the neuromuscular functions up to 40 mg/kg
same,LD50 at 48 h,"[7]; ip, intraperitoneal",68 mg/kg
same,LD50 at 48 h,[7]; oral,170 mg/kg
same,LD50 at 48 h,"[9]; ip, intraperitoneal",62.5 mg/kg
same,LD50 at 48 h,[9]; oral,440 mg/kg
